This is an account of results in US9499550B2 (BRISTOL-MYERS SQUIBB COMPANY, priority 2012, dated 2016).

For test [1], the system named is HCV genotype 1b (Con1) replicon in HUH-7 cells. Put plainly: HCV replicon luciferase reporter assay, genotype 1b. In kind it is cell-based. Particulars: Hepatitis C virus, Huh-7, 72 h, HCV genotype 1b replicon luciferase assay, 3 days incubation, range class, read-out: LE_1b (EC50, range). An outline of the steps:
(§1)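 Replicon inhibition for both genotypes was measured as Renilla luciferase signal (EnduRen, 7.5 μM final, 2 h) after 3-day, 37° C exposure of replicon-bearing HUH-7 cells in 4% FCS DMEM, 0.5% DMSO. The 1b construct carries S1179I; the 1a H77 construct carries P1496L and S2204I. Twenty-point, 3-fold dilutions were fitted four-parametrically for EC50, and CC50 was taken from multiplexed Cell Titer-Blue.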
For orientation: Replicon systems follow genome replication, usually without infectious particles.

Test [2] concerns HCV genotype 1a (H77 strain) replicon in HUH-7 cells. Put plainly: HCV replicon luciferase reporter assay, genotype 1a. Format: cell-based. Particulars: Hepatitis C virus, Huh-7, 72 h, HCV genotype 1a replicon luciferase assay, 3 days incubation, range class, read-out: LE_1a (EC50, range). An outline of the steps: as §1

In the case of `COc1ccc2c(O[C@@H]3C[C@H]4C(=O)N[C@]5(C(=O)NS(=O)(=O)C6CC6)C[C@H]5/C=C\CC[C@@H](C)C[C@@H](C)[C@H](NC(=O)OC(C)(C)C(F)(F)F)C(=O)N4C3)nc(-c3ccc(OC(C)C)cc3)nc2c1` [Compound 3022, 1,1,1-trifluoro-2-methylpropan-2-yl((2R,6S,7R,9R,13aS,14aR,16aS,Z)-14a-((cyclopropylsulfonyl)carbamoyl)-2-((2-(4-isopropoxyphenyl)-7-methoxyquinazolin-4-yl)oxy)-7,9-dimethyl-5,16-dioxo-1,2,3,5,6,7,8,9,10,11,13a,14,14a,15,16,16a-hexadecahydrocyclopropa[e]pyrrolo[1,2-a][1,4]diazacyclopentadecin-6-yl)carbamate], the EC50 in test [1] and in test [2] was less than 5.46 nM in each case.
With `CC[C@@H]1C[C@@H](C)CC/C=C\[C@@H]2C[C@@]2(C(=O)NS(=O)(=O)C2(C)CC2)NC(=O)[C@@H]2C[C@@H](Oc3nccc4c(OC)cccc34)CN2C(=O)[C@H]1NC(=O)OC(C)(C)C` [Compound 3023, tert-butyl ((2R,6S,7R,9S,13aS,14aR,16aS,Z)-7-ethyl-2-((5-methoxyisoquinolin-1-yl)oxy)-9-methyl-14a-(((1-methylcyclopropyl)sulfonyl)carbamoyl)-5,16-dioxo-1,2,3,5,6,7,8,9,10,11,13a,14,14a,15,16,16a-hexadecahydrocyclopropa[e]pyrrolo[1,2-a][1,4]diazacyclopentadecin-6-yl)carbamate], the EC50 in test [1] and in test [2] was 4.82 to 103 nM throughout.
On to `CC[C@@H]1C[C@H](C)CC/C=C\[C@@H]2C[C@@]2(C(=O)NS(=O)(=O)C2(C)CC2)NC(=O)[C@@H]2C[C@@H](Oc3nccc4c(OC)cccc34)CN2C(=O)[C@H]1NC(=O)OC(C)(C)C` [Compound 3024, tert-butyl ((2R,6S,7R,9R,13aS,14aR,16aS,Z)-7-ethyl-2-((5-methoxyisoquinolin-1-yl)oxy)-9-methyl-14a-(((1-methylcyclopropyl)sulfonyl)carbamoyl)-5,16-dioxo-1,2,3,5,6,7,8,9,10,11,13a,14,14a,15,16,16a-hexadecahydrocyclopropa[e]pyrrolo[1,2-a][1,4]diazacyclopentadecin-6-yl)carbamate], for which the EC50 in test [1] and in test [2] was less than 5.46 nM in each case.
In the case of `CC[C@@H]1C[C@@H](C)CC/C=C\[C@@H]2C[C@@]2(C(=O)NS(=O)(=O)C2CC2)NC(=O)[C@@H]2C[C@@H](Oc3nccc4c(OC)cccc34)CN2C(=O)[C@H]1NC(=O)OC(C)(C)C` [Compound 3025, tert-butyl ((2R,6S,7R,9S,13aS,14aR,16aS,Z)-14a-((cyclopropylsulfonyl)carbamoyl)-7-ethyl-2-((5-methoxyisoquinolin-1-yl)oxy)-9-methyl-5,16-dioxo-1,2,3,5,6,7,8,9,10,11,13a,14,14a,15,16,16a-hexadecahydrocyclopropa[e]pyrrolo[1,2-a][1,4]diazacyclopentadecin-6-yl)carbamate], the half-maximal effective concentration (EC50) in test [1] and in test [2] was 4.82 to 103 nM each time.
In the case of `CC[C@@H]1C[C@H](C)CC/C=C\[C@@H]2C[C@@]2(C(=O)NS(=O)(=O)C2CC2)NC(=O)[C@@H]2C[C@@H](Oc3nccc4c(OC)cccc34)CN2C(=O)[C@H]1NC(=O)OC(C)(C)C` [Compound 3026, tert-butyl ((2R,6S,7R,9R,13aS,14aR,16aS,Z)-14a-((cyclopropylsulfonyl)carbamoyl)-7-ethyl-2-((5-methoxyisoquinolin-1-yl)oxy)-9-methyl-5,16-dioxo-1,2,3,5,6,7,8,9,10,11,13a,14,14a,15,16,16a-hexadecahydrocyclopropa[e]pyrrolo[1,2-a][1,4]diazacyclopentadecin-6-yl)carbamate], the EC50 in test [1] and in test [2] was less than 5.46 nM each time.
As for `CC[C@@H]1C[C@@H](C)CC/C=C\[C@@H]2C[C@@]2(C(=O)NS(=O)(=O)C2(C)CC2)NC(=O)[C@@H]2C[C@@H](Oc3nccc4c(OC)cccc34)CN2C(=O)[C@H]1NC(=O)OC(C)(C)C(F)(F)F` [Compound 3027, 1,1,1-trifluoro-2-methylpropan-2-yl((2R,6S,7R,9S,13aS,14aR,16aS,Z)-7-ethyl-2-((5-methoxyisoquinolin-1-yl)oxy)-9-methyl-14a-(((1-methylcyclopropyl)sulfonyl)carbamoyl)-5,16-dioxo-1,2,3,5,6,7,8,9,10,11,13a,14,14a,15,16,16a-hexadecahydrocyclopropa[e]pyrrolo[1,2-a][1,4]diazacyclopentadecin-6-yl)carbamate], the 50% effective concentration (EC50) in test [1] and in test [2] was 4.82 to 103 nM throughout.
Turning to `CC[C@@H]1C[C@H](C)CC/C=C\[C@@H]2C[C@@]2(C(=O)NS(=O)(=O)C2(C)CC2)NC(=O)[C@@H]2C[C@@H](Oc3nccc4c(OC)cccc34)CN2C(=O)[C@H]1NC(=O)OC(C)(C)C(F)(F)F` [Compound 3028, 1,1,1-trifluoro-2-methylpropan-2-yl((2R,6S,7R,9R,13aS,14aR,16aS,Z)-7-ethyl-2-((5-methoxyisoquinolin-1-yl)oxy)-9-methyl-14a-(((1-methylcyclopropyl)sulfonyl)carbamoyl)-5,16-dioxo-1,2,3,5,6,7,8,9,10,11,13a,14,14a,15,16,16a-hexadecahydrocyclopropa[e]pyrrolo[1,2-a][1,4]diazacyclopentadecin-6-yl)carbamate], the EC50 in test [1] and in test [2] was less than 5.46 nM each time.
Consider `CC[C@@H]1C[C@@H](C)CC/C=C\[C@@H]2C[C@@]2(C(=O)NS(=O)(=O)C2CC2)NC(=O)[C@@H]2C[C@@H](Oc3nccc4c(OC)cccc34)CN2C(=O)[C@H]1NC(=O)NC(C)(C)C` [Compound 3029, (2R,6S,7R,9S,13aS,14aR,16aS,Z)-6-(3-(tert-butyl)ureido)-N-(cyclopropylsulfonyl)-7-ethyl-2-((5-methoxyisoquinolin-1-yl)oxy)-9-methyl-5,16-dioxo-1,2,3,5,6,7,8,9,10,11,13a,14,14a,15,16,16a-hexadecahydrocyclopropa[e]pyrrolo[1,2-a][1,4]diazacyclopentadecine-14a-carboxamide], for which the EC50 in test [1] and in test [2] was 4.82 to 103 nM in each case.
On to `CC[C@@H]1C[C@H](C)CC/C=C\[C@@H]2C[C@@]2(C(=O)NS(=O)(=O)C2CC2)NC(=O)[C@@H]2C[C@@H](Oc3nccc4c(OC)cccc34)CN2C(=O)[C@H]1NC(=O)NC(C)(C)C` [Compound 3030, (2R,6S,7R,9R,13aS,14aR,16aS,Z)-6-(3-(tert-butyl)ureido)-N-(cyclopropylsulfonyl)-7-ethyl-2-((5-methoxyisoquinolin-1-yl)oxy)-9-methyl-5,16-dioxo-1,2,3,5,6,7,8,9,10,11,13a,14,14a,15,16,16a-hexadecahydrocyclopropa[e]pyrrolo[1,2-a][1,4]diazacyclopentadecine-14a-carboxamide], for which the EC50 in test [1] and in test [2] was less than 5.46 nM throughout.
For the molecule `CC[C@@H]1C[C@@H](C)CC/C=C\[C@@H]2C[C@@]2(C(=O)NS(=O)(=O)C2CC2)NC(=O)[C@@H]2C[C@@H](Oc3nccc4c(OC)cccc34)CN2C(=O)[C@H]1NC(=O)OC(C)(C)C(F)(F)F` [Compound 3031, 1,1,1-trifluoro-2-methylpropan-2-yl((2R,6S,7R,9S,13aS,14aR,16aS,Z)-14a-((cyclopropylsulfonyl)carbamoyl)-7-ethyl-2-((5-methoxyisoquinolin-1-yl)oxy)-9-methyl-5,16-dioxo-1,2,3,5,6,7,8,9,10,11,13a,14,14a,15,16,16a-hexadecahydrocyclopropa[e]pyrrolo[1,2-a][1,4]diazacyclopentadecin-6-yl)carbamate], the concentration for a half-maximal effect (EC50) in test [1] and in test [2] was 4.82 to 103 nM each time.

The term EC50 denotes the concentration at which the effect is half-maximal.
